Test results as given in patent US20170303817A1, “SURGICAL ARTICLES AND METHODS FOR DETECTION” (GEORGIA STATE UNIVERSITY RESEARCH FOUNDATION, INC., priority 2014, published 2017).

What was measured:
[1] = NIR dye leaching from sponges: fluorescence of canine blood samples; settings: for fluorescence of test canine blood sample (ICG leaching): blood and DMSO in a 1:3 ratio
[2] = In vivo detection of ICG sponge in canine surgical site, 780 nm laser; design: species or system dog; settings: FIG. 7
Method: Method: A stray female dog (Doberman […]) underwent an ovariohysterectomy procedure. After making an incision in the dog's abdomen, a standard 4×4 surgical gauze was placed inside the surgical site and allowed to become saturated with blood. A 780 nm laser was focused on a portion of the gauze and the area photographed and observed for excitation. This experiment was repeated using a sponge soaked in 1 mM ICG dye solution for 1 hr and a sponge soaked in 1 mM ICG dye solution for 24 hrs. Prior to in vivo use, the sponges first underwent sterilization: Steam sterilization at 350° F. for 20 min and gas sterilization in ethylene oxide for 12-24 hr.

Structure (SMILES): CC1(C)C(/C=C/C=C/C=C/C=C2\N(CCCCS(=O)(=O)O)c3ccc4ccccc4c3C2(C)C)=[N+](CCCCS(=O)(=O)[O-])c2ccc3ccccc3c21 [ICG, indocyanine green]
- fluorescence of test canine blood sample (ICG leaching) ([1]; 1 hr after sponge placement): no fluorescence
- fluorescence of test canine blood sample (ICG leaching) ([1]; 4 hours after sponge placement): no fluorescence
- fluorescence wavelength in control canine blood sample ([1]; canine blood spiked with 0.1 mM solution of ICG in DMSO, FIG. 8): 815 nm
- fluorescence of sponge soaked for 24 hrs compared to sponge soaked for 1 hr ([2]; 1 mM ICG dye solution): increase in florescence
- fluorescence of treated sponge compared to the untreated sponge ([2]; sponge treated with 1 mM ICG solution): significant increase in the fluorescence
